Entries after “also recorded” stand apart in the source; their conditions may differ. Where a SMILES comes first, the peptide text is derived from it. [ ]: non-standard residue; d: D form. dPhe(4-Cl) = N[C@H](Cc1ccc(Cl)cc1)C(=O)O; d2Nal = N[C@H](Cc1ccc2ccccc2c1)C(=O)O; dCit = NC(=O)NCCC[C@@H](N)C(=O)O; d3Pal = N[C@H](Cc1cccnc1)C(=O)O
Tests used:
premature LH surges = details: short term treatment, first clinical trials; cited from earlier work
premature LH surge = test: Phase II clinical trial of Cetrorelix in controlled ovarian stimulation (COS/ART); format: in vivo, human; details: for babies born by the end of May 1996: by end of May 1996; for minimal effective dose, Dose/Day / no effect dose, Dose/Day: phase II dose finding
Protocol: The results of a phase II clinical trial are shown in Table I. A total of […] patients were treated.
During multiple dosing, the mean days of Cetrorelix application is 6 days. 25 babies were born by the end of May 1996 (7 following multiple doses; 18 following single/dual doses).
The hormone levels of luteinizing hormone (LH) (μg/l) (∘), follicular stimulating hormone (FSH) (μg/l) (+), progesterone (μg/l) (●), and oestradiol (E2) (ng/l) (▾) were measured in patient number 21L07 at time intervals one month (Nov. 10, 1995) and four consecutive days before (Dec. 05, 1995-Dec. 09, 1995) a dual dose regimen of Cetrorelix (3 mg) was administered subcutaneously on Dec. 10, 1995 and Dec. 11, 1995. The patient's LH, FSH, progesterone and oestradiol levels were measured afterward between Dec. 11, 1995 and Dec. 14, 1995 wherein ovulation in the patient was induced with human chorionic gonadotrophin (HCG) on Dec. 14, 1995. The patients LH, FSH, progesterone, and oestradiol levels were also measured after HCG treatment through ovum pick up (OPU; Dec. 16, 1995), and embryo transfer (ET) on […]. Hormone levels were also measured on the 4th and (Dec. 22, 1995) and 16th day after ET(Jan. 3,1996).
238 patients were treated with Cetrorelix by subcutaneous injection of Cetrorelix Acetat-Lyophilisat.
134 patients were treated with multiple doses and 104 patients with single or dual doses. The multiple doses are 0.25 mg/day or higher. […]

[1] = system: controlled ovarian stimulation (COS); test: Combination of Cetrorelix, clomifen citrate and gonadotrophins for hormonal stimulation for IVF/ICSI; format: in vivo, human; details: for fertilization rates: ICSI
Protocol: Combination of the GnRH antagonist Cetrorelix, clomifen citrate(CC) and gonadotrophins for hormonal stimulation for IVF/ICSI. New controlled ovarian stimulation (COS) protocols become possible, which combine the advantages of clomifen citrate/gonadotrophin stimulation and pituitary suppression with Cetrorelix. COS was started on day 2 after spontaneous menstrual bleeding using 100 mg CC per day for 5 or 7 days. The antagonist Cetrorelix (0.25 mg s.c.) was given starting on stimulation day 6 combined with either urinary hMG or recombinant FSH (3 ampoules/d) in a prospective randomized way. After two days of gonadotrophin injection, the dose was individualized. Human chorionic gonadotropin was given for ovulation induction, if at least 3 follicles were ≧17 mm in diameter. In total, 30 patients were included in the study. 15 were randomized in each group. Intra cytoplasmatic sperm injection (ICSI) was applied in each case.

[2] = system: follicular growth / pituitary; test: Animal experiments and clinical studies with Cetrorelix in normal, unstimulated cycles; format: in vivo
Text: These low dosage levels present new possibilities for manipulating the time of ovulation during a normal, not exogenous gonadotropin-stimulated cycle, without affecting the viability of the growing follicle. In case of inadequate follicular growth related to treatment with LHRH-antagonists, low dose and short term administration of gonadotrophin or other trophic compounds will compensate for these effects. Subsequently, by stopping the LHRH-antagonist treatment, it is possible to let the normal ovulation occur or to induce ovulation by exogenous manipulation, if necessary. Ovulation induction was induced by the administration of standard HCG or by administration of LHRH and/or LHRH agonistic analogs. These described treatment alternatives are a departure from existing protocols, since they are possible only if preceded by treatment for LH-surge-control with an LHRH-antagonist. In animal and clinical studies with Cetrorelix it was shown that the responsiveness of the pituitary to LHRH or agonistic analogs is preserved under these conditions of treatment. Without this treatment, the pituitary cannot respond after agonistic pretreatment for LH-surge control due to receptor down-regulation. In addition, the possible use of ovulation inducing agents other than HCG results in a-reduced incidence of ovarian hyperstimulation syndrome.

[3] = all phase II patients, both regimens
[4] = single patient, dual dose regimen of 3 mg s.c.

Question: Which “premature LH surges during stimulated cycles” value (premature LH surges) does the source give for `CC(=O)N[C@H](Cc1ccc2ccccc2c1)C(=O)N[C@H](Cc1ccc(Cl)cc1)C(=O)N[C@H](Cc1cccnc1)C(=O)N[C@@H](CO)C(=O)N[C@@H](Cc1ccc(O)cc1)C(=O)N[C@H](CCCNC(N)=O)C(=O)N[C@@H](CC(C)C)C(=O)N[C@@H](CCCNC(=N)N)C(=O)N1CCC[C@H]1C(=O)N[C@H](C)C(N)=O` [Cetrorelix] (Ac-[d2Nal][dPhe(4-Cl)][d3Pal]SY[dCit]LRP[dA]-NH2) here?
Answer: Its value is “complete avoidance of premature LH surges”.

Question: What about the “fertilization rates, follicle and oocytes quality” value (premature LH surge; after both posologies (single and multiple dose)) of the same compound?
Answer: Its value is “good fertilization rates”.

Question: And the pregnancy rates (premature LH surge; after both treatments (single and multiple dose))?
Answer: The pregnancy rates was “good”.

Question: What about the “babies born by the end of May 1996” value (premature LH surge; all patients) of the same compound?
Answer: The value was 25.

Question: And the “pregnancies obtained (number)” value (premature LH surge; [3])?
Answer: The value was 71 pregnancies.

Question: What about the “pregnancies obtained (rate)” value (premature LH surge; [3]) of the same compound?
Answer: The value was 30%.

Question: And the babies born (premature LH surge; following multiple doses)?
Answer: The babies born was 15.

Question: What about the “babies born by the end of May 1996” value (premature LH surge; following multiple doses) of the same compound?
Answer: Its value is 7.

Question: And the babies born (premature LH surge; following single/dual doses)?
Answer: The babies born was 29.

Question: What about the “babies born by the end of May 1996” value (premature LH surge; following single/dual doses) of the same compound?
Answer: Its value is 18.

Question: And the “pregnancies (rate)” value (premature LH surge; multiple dose regimen, 134 patients)?
Answer: Its value is 28.4%.

Question: What about the “pregnancies (number)” value (premature LH surge; multiple dose regimen, of 134 patients) of the same compound?
Answer: Its value is 38.

Question: What about the “minimal effective dose, Dose/Day” value (premature LH surge; multiple dose, 3-7/14 days) of the same compound?
Answer: Its value is 0.25 min. effect, dose mg.

Question: What about the “no effect dose, Dose/Day” value (premature LH surge; multiple dose, 3-7/14 days) of the same compound?
Answer: Its value is 0.10 no effect. dose mg.

Question: And the “premature LH surge” value (premature LH surge; patients undergoing COS/ART, multiple doses of 0.25 mg or higher or single dose of 3 mg or higher, s.c.)?
Answer: The value was “prevention of any premature LH surge; also recorded: No premature LH surge”.

Question: What about the “minimal effective dose, Dose/Day” value (premature LH surge; single dose (1 day)) of the same compound?
Answer: Its value is 3 min. effective dose mg.

Question: What about the “no effect dose, Dose/Day” value (premature LH surge; single dose (1 day)) of the same compound?
Answer: The value was 2 no effect. Dose mg.

Question: And the “duration of effect to prevent a premature LH surge” value (premature LH surge; single dose regimen, one injection of 3 mg)?
Answer: Its value is “up to 6.5 days”.

Question: And the “FSH secretion (FIG. 1)” value (premature LH surge; [4])?
Answer: Its value is “maintained at a natural level”.

Question: And the “individual estrogen development (FIG. 1)” value (premature LH surge; [4])?
Answer: Its value is “not affected”.

Question: What about the “premature LH surge (FIG. 1)” value (premature LH surge; [4]) of the same compound?
Answer: Its value is “absolute prevention of any premature LH surge”.

Question: And the “pregnancies (rate)” value (premature LH surge; single/dual dosage regimen, 104 patients)?
Answer: The value was 31.7%.

Question: What about the “pregnancies (number)” value (premature LH surge; single/dual dosage regimen, of 104 patients) of the same compound?
Answer: The value was 33.

Question: And the “ovarian hyperstimulation syndrome (OHSS)” value ([1]; 30 patients, both groups)?
Answer: The value was “no case of OHSS was observed”.

Question: What about the clinical pregnancy rate/transfer ([1]; hMG group) of the same compound?
Answer: The clinical pregnancy rate/transfer was 4/14.

Question: And the “metaphase II oocytes” value ([1]; hMG group)?
Answer: Its value is 74%.

Question: What about the “oocytes per cycle retrieved” value ([1]; hMG group) of the same compound?
Answer: Its value is 7.7±3.8.

Question: What about the transfer rate/cycle ([1]; hMG group) of the same compound?
Answer: Its transfer rate/cycle is 87%.

Question: What about the fertilization rates ([1]; hMG group) of the same compound?
Answer: The fertilization rates was 42%.

Question: And the clinical pregnancy rate/transfer ([1]; recombinant FSH group)?
Answer: Its clinical pregnancy rate/transfer is 1/11.

Question: And the “metaphase II oocytes” value ([1]; recombinant FSH group)?
Answer: The value was 80%.

Question: And the “oocytes per cycle retrieved” value ([1]; recombinant FSH group)?
Answer: Its value is 6.4±2.6.

Question: What about the transfer rate/cycle ([1]; recombinant FSH group) of the same compound?
Answer: Its transfer rate/cycle is 80%.

Question: What about the fertilization rates ([1]; recombinant FSH group) of the same compound?
Answer: Its fertilization rates is 53%.

Question: And the “normal, unstimulated follicular growth” value ([2]; multiple or single injections, extremely low dosage levels)?
Answer: The value was “arrest of the normal, unstimulated follicular growth”.

Question: What about the “responsiveness of the pituitary to LHRH or agonistic analogs” value ([2]; under LH-surge-control treatment with the antagonist) of the same compound?
Answer: The value was “preserved”.
